Here are results for one molecule from article PMC10590383, “Repurposing conformational changes in ANL superfamily enzymes to rapidly generate biosensors for organic and amino acids” (Nature Communications, 2023).

One experiment concerns the target T1, GECFINDER-Phe1 (Aneurinibacillus migulanus, UniProt P0C061).
T1 construct: gene grsA; GrsA-PheA-PCP; cpEGFP inserted in hinge B, linkers CC-DR
Briefly: Fluorescence dose-response of purified cpEGFP sensors (0.75 uM) in 100 mM Tris-HCl pH 7.5, room temperature, 1 mM ATP, 2.5 mM MgCl2; excitation 400, 460 or 480 nm by sensor, emission 510 nm; logistic five-parameter fit. It counts as biochemical. Conditions: n = 3.

For a further experiment, the target named is T2, GECFINDER-Phe3 (Aneurinibacillus migulanus, UniProt P0C061).
T2 construct: gene grsA; GrsA-PheA-PCP; cpEGFP inserted in hinge B, linkers VF-QS
T2 sequence (P0C061 1-617): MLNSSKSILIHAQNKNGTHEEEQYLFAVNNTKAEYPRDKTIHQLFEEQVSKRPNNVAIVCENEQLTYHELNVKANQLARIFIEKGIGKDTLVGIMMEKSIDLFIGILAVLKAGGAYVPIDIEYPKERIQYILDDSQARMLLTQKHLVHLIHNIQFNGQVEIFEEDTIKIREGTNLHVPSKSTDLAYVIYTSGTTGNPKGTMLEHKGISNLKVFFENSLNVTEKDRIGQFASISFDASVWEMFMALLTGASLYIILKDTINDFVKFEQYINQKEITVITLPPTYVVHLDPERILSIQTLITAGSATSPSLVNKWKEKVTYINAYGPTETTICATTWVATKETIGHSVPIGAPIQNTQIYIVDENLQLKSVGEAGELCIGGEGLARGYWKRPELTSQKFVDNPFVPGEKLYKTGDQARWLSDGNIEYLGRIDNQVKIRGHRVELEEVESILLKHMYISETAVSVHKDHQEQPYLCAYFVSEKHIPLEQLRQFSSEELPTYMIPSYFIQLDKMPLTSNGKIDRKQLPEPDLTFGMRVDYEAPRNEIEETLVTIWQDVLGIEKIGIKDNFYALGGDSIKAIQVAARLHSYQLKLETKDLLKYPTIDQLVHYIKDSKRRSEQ
The description is as above. In kind it is biochemical. Conditions: n = 3.

As usually defined, the EC50 is the concentration that produces a half-maximal response.

Take `N[C@@H](Cc1ccccc1)C(=O)O` [Phe, phenylalanine]: the EC50 at GECFINDER-Phe1 is 1550 ± 230 nM; on GECFINDER-Phe3, 1910 ± 80 nM.
